Experimental data as given in PubChem BioAssay AID2060354 (Molecular Pharmacology Branch, DTP, NCI, 2025).
“And” between values parts separate entries of the source, which are not always exact repeats. Equal entries are not always repeated.

Tested on: 519858-162-T-J1-PDC spheroid growth inhibition
Experiment: Anticancer human tumor 519858-162-T-J1-PDC patient-derived colon adenocarcinoma cell line growth inhibition [TAK]
Conditions: spheroids with HUVEC and MSC; for viability, T/C: stronger effect = lower value
Excerpt: Combinatorial screen of targeted agents with TAK-243 and ipatasertib in multi-cell type tumor spheroids
A high-throughput screen of multi-cell type tumor spheroids was designed to identify active combinations of targeted small molecules and TAK-243 or ipatasertib. Complex spheroids include a stromal component modeled by human endothelial cells (HUVEC) and fibroblasts modeled by human mesenchymal stem cells (MSCs). The concentration ranges selected for each drug and investigational agent were based upon clinically achievable concentrations if the clinical Cmax of the agent was known.
Compounds. The drugs and investigational agents: TAK-243 (785004), ipatasertib (767898), everolimus (733504), selumetinib (741078), bortezomib (756655), trametinib (758246), ixazomib (758254), vemurafenib (761431), dabrafenib (764134), sapanisertib (764658), alpelisib (765974), and copanlisib (816437), were obtained from the National Cancer Institute (NCI) Developmental Therapeutics Program Chemical Repository. The FDA-approved anticancer drug set is available from the NCI Developmental Therapeutics Program. […] The stock solutions were prepared in dimethyl sulfoxide (DMSO, Sigma-Aldrich, St. Louis, MO, cat. D2650) at 800-fold the tested concentration and stored at -70 degrees C prior to their use. All drugs and investigational agents were tested over a range starting from a high concentration at or near the clinical Cmax and decreasing in half-log increments. If the clinical Cmax for an agent had not been determined, the highest concentration tested was 10 microM.
NCI60 Cell Culture. NCI60 cell lines were obtained from the NCI Developmental Therapeutics Program Tumor Repository. For each lot of cells, the Repository performed Applied Biosystems AmpFLSTR Identifiler testing with PCR amplification to confirm consistency with the published Identifier STR profile for each cell line. Cells were kept in continuous culture for no more than 20 passages. The optimal seeding densities for each of the cell lines at each time point assessed were determined prior to performing the concentration response studies. Briefly, the NCI60 human tumor lines were grown as monolayers in RPMI 1640 medium supplemented with 10% FBS and 2 mmol/L L-glutamine.
An additional 2 lines were from the NCI60 cell line panel including melanomas, MALME-3M and SK-MEL-2. Pooled donor human umbilical vein endothelial cells (HUVEC, Lonza, cat. CC-2519) and human mesenchymal stem cells (hMSC, Lonza, cat. PT-2501) were purchased from Lonza (Walkersville, MD).
PDMR cell lines were grown in complete medium (DC medium): Dulbecco's modified Eagle's medium (DMEM)/F12 supplemented with 5% fetal bovine serum (FBS), 2 mM L-glutamine, 100 U/mL penicillin and 100 µg/ml streptomycin, 0.4 µg/ml hydrocortisone, 10 ng/ml epidermal growth factor (EGF) recombinant human protein, 24 µg/mL adenine, and 0.1 mg/mL primocin. During culture from frozen stock vials, PDMR cells were cultured in the same medium containing 10 µM Y-27632 (see Table 3). The PDCs were cultured in complete DMEM/F12 media without 10 microM Y-27632 dihydrochloride for at least two passages prior to the screen. The pooled donor HUVEC and hMSC were cultured in endothelial cell growth medium 2 (PromoCell, Heidelberg, Germany, cat. C-22011) and mesenchymal stem cell growth medium 2 (PromoCell, cat. C-28009), respectively. For all experiments, HUVEC and hMSC were used at passages </=5.
For the pre-screen, cell seeding densities were determined from a titration spanning the range from 5,000 to 313 cells per well. The mct-spheroids including 60% malignant cells, 25% HUVEC and 15% MSC dispensed as a mixture into U-bottom Ultra-Low Attachment 384-well plates (Corning, NY)
High-throughput Drug Combination Screening.
Prior to their inoculation into 384-well plates, malignant cells, HUVEC, and hMSC were removed from T flasks using TrypLE express (Thermo Fisher Scientific, cat. 12605036) and harvested by centrifugation for 5 min at 233 x g. […]
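Further: spheroids exposed to drugs for 7 days.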

Cn1cnc2c(F)c(Nc3ccc(Br)cc3Cl)c(C(=O)NOCCO)cc21 + CC(C)NCC(C(=O)N1CCN(c2ncnc3c2C(C)CC3O)CC1)c1ccc(Cl)cc1
IC50 (curve of first compound, second compound 0.3 µM): 77.5 nM
IC50 (curve of first compound, second compound 0.949 µM): 68.7 nM
IC50 (curve of first compound, second compound 3 µM): 95.4 nM
IC50 (curve of first compound, second compound 9.49 µM): 139 nM
IC50 (curve of first compound, second compound 30 µM): 162 nM
viability, T/C (second compound 0.3 µM, first compound 0.00949 µM): 80.3%
viability, T/C (second compound 0.3 µM, first compound 0.03 µM): 62.7%
viability, T/C (second compound 0.3 µM, first compound 0.0949 µM): 49%
viability, T/C (second compound 0.3 µM, first compound 0.3 µM): 30.5%
viability, T/C (second compound 0.3 µM, first compound 0.949 µM): 17%
viability, T/C (second compound 0.3 µM, first compound 3 µM): 14%
viability, T/C (second compound 0.949 µM, first compound 0.00949 µM): 88.5%
viability, T/C (second compound 0.949 µM, first compound 0.03 µM): 64%
viability, T/C (second compound 0.949 µM, first compound 0.0949 µM): 44.1%
viability, T/C (second compound 0.949 µM, first compound 0.3 µM): 32.8%
viability, T/C (second compound 0.949 µM, first compound 0.949 µM): 15.7%
viability, T/C (second compound 0.949 µM, first compound 3 µM): 16.8%
viability, T/C (second compound 3 µM, first compound 0.00949 µM): 73.8%
viability, T/C (second compound 3 µM, first compound 0.03 µM): 66.9%
viability, T/C (second compound 3 µM, first compound 0.0949 µM): 50.1%
viability, T/C (second compound 3 µM, first compound 0.3 µM): 30.7%
viability, T/C (second compound 3 µM, first compound 0.949 µM): 24.6%
viability, T/C (second compound 3 µM, first compound 3 µM): 15.5%
viability, T/C (second compound 9.49 µM, first compound 0.00949 µM): 84.2%
viability, T/C (second compound 9.49 µM, first compound 0.03 µM): 85.3%
viability, T/C (second compound 9.49 µM, first compound 0.0949 µM): 53.8%
viability, T/C (second compound 9.49 µM, first compound 0.3 µM): 36.2%
viability, T/C (second compound 9.49 µM, first compound 0.949 µM): 23.4%
viability, T/C (second compound 9.49 µM, first compound 3 µM): 17%
viability, T/C (second compound 30 µM, first compound 0.00949 µM): 101%
viability, T/C (second compound 30 µM, first compound 0.03 µM): 79%
viability, T/C (second compound 30 µM, first compound 0.0949 µM): 68.7%
viability, T/C (second compound 30 µM, first compound 0.3 µM): 32.2%
viability, T/C (second compound 30 µM, first compound 0.949 µM): 21%
viability, T/C (second compound 30 µM, first compound 3 µM): 21.4%

CC(=O)Nc1cccc(-n2c(=O)n(C3CC3)c(=O)c3c(Nc4ccc(I)cc4F)n(C)c(=O)c(C)c32)c1
viability, T/C (compound 94.9 pM): 89.9% and 91.8%
viability, T/C (compound 0.0003 µM): 93.7% and 106%
viability, T/C (compound 0.000949 µM): 72.7% and 67.4%
viability, T/C (compound 0.003 µM): 71.1% and 79.3%
viability, T/C (compound 0.00949 µM): 34.1% and 44.1%
viability, T/C (compound 0.03 µM): 21.4% and 26.3%
IC50 (curve of compound): 5.61 nM and 8.51 nM

CC(C)CC(NC(=O)CNC(=O)c1cc(Cl)ccc1Cl)B1OC(=O)CC(CC(=O)O)(C(=O)O)O1 (stereo not drawn)
viability, T/C (compound 0.000316 µM): 86.2% and 83.8%
viability, T/C (compound 0.00316 µM): 106% and 95.6%
viability, T/C (compound 0.01 µM): 92.6% and 72.9%
viability, T/C (compound 0.0316 µM): 74.9% and 77%
viability, T/C (compound 0.1 µM): 74.5% and 84.2%
IC50 (curve of compound): > 100 nM
